Holding throughout (format): functional
Experiment [1] concerns Aspergillus flavus. Briefly: Antifungal activity against Aspergillus flavus MTCC 183 at MIC after 48 hrs by disc diffusion method.
Experiment [2] deals with Candida tropicalis. The experiment is described as follows: Antifungal activity against Candida tropicalis MTCC 184 at 37 degC after 48 hrs by microbroth dilution technique. Particulars: MTCC 184, 48 h.
The test system of experiment [3] is Klebsiella pneumoniae. The experiment is described as follows: Antibacterial activity against Klebsiella pneumoniae MTCC 109 at MIC after overnight incubation by disc diffusion method.
The subject of experiment [4] is Klebsiella pneumoniae. The experiment is described as follows: Antibacterial activity against Klebsiella pneumoniae MTCC 109 after 24 hrs by two-fold dilution method. The following applies: MTCC 109, 24 h.
Experiment [5] has as its system Aspergillus tubingensis. Briefly: Antifungal activity against Aspergillus tubingensis MTCC 2425 at 30 degC after 72 hrs by microbroth dilution technique. The following applies: MTCC 2425, 72 h.
Experiment [6] deals with Pseudomonas aeruginosa. The experiment is described as follows: Antibacterial activity against Pseudomonas aeruginosa MTCC 2642 after 24 hrs by two-fold dilution method. The following applies: MTCC 2642, 24 h.
Experiment [7] has as its system Trichophyton rubrum. Briefly: Antifungal activity against Trichophyton rubrum MTCC 296 at 30 degC after 72 hrs by microbroth dilution technique. The following applies: MTCC 296, 72 h.
Experiment [8] concerns Pseudomonas aeruginosa. Briefly: Antibacterial activity against Pseudomonas aeruginosa MTCC 2642 at MIC after overnight incubation by disc diffusion method.
Experiment [9] has as its system Aspergillus tubingensis. The experiment is described as follows: Antifungal activity against Aspergillus tubingensis MTCC 2425 at MIC after 48 hrs by disc diffusion method.
Experiment [10] relates to Candida albicans. The experiment is described as follows: Antifungal activity against Candida albicans MTCC 3017 at MIC after 48 hrs by disc diffusion method.
The test system of experiment [11] is Aspergillus fumigatus. The experiment is described as follows: Antifungal activity against Aspergillus fumigatus MTCC 3376 at 30 degC after 72 hrs by microbroth dilution technique. The following applies: MTCC 3376, 72 h.
Experiment [12] deals with Aspergillus fumigatus. Briefly: Antifungal activity against Aspergillus fumigatus MTCC 3376 at MIC after 48 hrs by disc diffusion method.
In experiment [13] the test system is Escherichia coli. The experiment is described as follows: Antibacterial activity against Escherichia coli MTCC 2622 at MIC after overnight incubation by disc diffusion method.
Experiment [14] has as its system Trichophyton rubrum. Briefly: Antifungal activity against Trichophyton rubrum MTCC 296 at MIC after 48 hrs by disc diffusion method.
The test system of experiment [15] is Staphylococcus aureus. Briefly: Antibacterial activity against Staphylococcus aureus MTCC 902 after 24 hrs by two-fold dilution method. Particulars: MTCC 902, 24 h.
Experiment [16] deals with Aspergillus niger. The experiment is described as follows: Antifungal activity against Aspergillus niger MTCC 277 at MIC after 48 hrs by disc diffusion method.
For experiment [17], the system named is Candida albicans. Briefly: Antifungal activity against Candida albicans MTCC 3017 at 37 degC after 48 hrs by microbroth dilution technique. The following applies: MTCC 3017, 48 h.
The subject of experiment [18] is Staphylococcus epidermidis. Briefly: Antibacterial activity against Staphylococcus epidermidis MTCC 435 after 24 hrs by two-fold dilution method. Particulars: MTCC 435, 24 h.
Experiment [19] has as its system Candida tropicalis. Briefly: Antifungal activity against Candida tropicalis MTCC 184 at MIC after 48 hrs by disc diffusion method.
Experiment [20] deals with Escherichia coli. Briefly: Antibacterial activity against Escherichia coli MTCC 2622 after 24 hrs by two-fold dilution method. The following applies: MTCC 2622, 24 h.
Experiment [21] relates to Staphylococcus aureus. Briefly: Antibacterial activity against Staphylococcus aureus MTCC 902 at MIC after overnight incubation by disc diffusion method.
For experiment [22], the system named is Aspergillus niger. The experiment is described as follows: Antifungal activity against Aspergillus niger MTCC 277 at 30 degC after 72 hrs by microbroth dilution technique. Particulars: MTCC 277, 72 h.
The test system of experiment [23] is Aspergillus flavus. The experiment is described as follows: Antifungal activity against Aspergillus flavus MTCC 183 at 30 degC after 72 hrs by microbroth dilution technique. The following applies: MTCC 183, 72 h.
Experiment [24] has as its system Penicillium expansum. Briefly: Antifungal activity against Penicillium expansum MTCC 2006 at MIC after 48 hrs by disc diffusion method.
The subject of experiment [25] is Penicillium expansum. Briefly: Antifungal activity against Penicillium expansum MTCC 2006 at 30 degC after 72 hrs by microbroth dilution technique. Particulars: MTCC 2006, 72 h.
For experiment [26], the system named is Bacillus subtilis. Briefly: Antibacterial activity against Bacillus subtilis MTCC 2756 after 24 hrs by two-fold dilution method. Particulars: MTCC 2756, 24 h.
In experiment [27] the test system is Staphylococcus epidermidis. The experiment is described as follows: Antibacterial activity against Staphylococcus epidermidis MTCC 435 at MIC after overnight incubation by disc diffusion method.
The test system of experiment [28] is Bacillus subtilis. The experiment is described as follows: Antibacterial activity against Bacillus subtilis MTCC 2756 at MIC after overnight incubation by disc diffusion method.
The subject of experiment [29] is Penicillium expansum. Briefly: Ratio of amphotericin B MIC to compound MIC for Penicillium expansum MTCC 2006.

≈ marks a conversion by molar mass, not a printed value.

On to `O=C(O)C[C@@H]1NC[C@@H]2CCCN2C1=O`, for which the “diameter of the inhibition zone (DIZ)” value in the experiment with Aspergillus flavus [1] was 24 mm; in the experiment on Klebsiella pneumoniae [3], 17 mm; in the experiment with Pseudomonas aeruginosa [8], 14 mm; in the experiment with Aspergillus tubingensis [9], 21 mm; in the experiment with Candida albicans [10], 15 mm; with Aspergillus fumigatus [12] it was 18 mm. The “diameter of the inhibition zone (DIZ)” value was determined as 19 mm in the experiment with Escherichia coli [13]; 28 mm in the experiment with Trichophyton rubrum [14]; 19 mm in the experiment with Aspergillus niger [16]; 14 mm with Candida tropicalis [19]; 16 mm with Staphylococcus aureus [21]; 13 mm with Penicillium expansum [24]. The “diameter of the inhibition zone (DIZ)” value in experiment [27] is 23 mm; with Bacillus subtilis [28], 15 mm. Moreover, the minimal inhibitory concentration (MIC) stood at 125 µg/mL (≈ 631 µM) in the experiment on Candida tropicalis [2]; 32 µg/mL (≈ 161 µM) in the experiment with Klebsiella pneumoniae [4]; 125 µg/mL (≈ 631 µM) against Aspergillus tubingensis [5]; 125 µg/mL (≈ 631 µM) with Pseudomonas aeruginosa [6]; 8 µg/mL (≈ 40.4 µM) against Trichophyton rubrum [7]; 250 µg/mL (≈ 1260 µM) against Aspergillus fumigatus [11]. In addition, the minimum inhibitory concentration (MIC) against Staphylococcus aureus [15] turned out to be 250 µg/mL (≈ 1260 µM); against Candida albicans [17], 250 µg/mL (≈ 1260 µM); in experiment [18] it was 64 µg/mL (≈ 323 µM); with Escherichia coli [20], 64 µg/mL (≈ 323 µM); against Aspergillus niger [22], 64 µg/mL (≈ 323 µM); in the experiment on Aspergillus flavus [23], 32 µg/mL (≈ 161 µM). Further, the MIC amounted to 500 µg/mL (≈ 2520 µM) in the experiment with Penicillium expansum [25] and 125 µg/mL (≈ 631 µM) against Bacillus subtilis [26].

For the molecule `O=C(O)C[C@@H]1NC(=O)[C@@H]2CCCN2C1=O`, the “diameter of the inhibition zone (DIZ)” value is recorded as 28 mm with Aspergillus flavus [1]; 31 mm with Klebsiella pneumoniae [3]; 26 mm in the experiment on Pseudomonas aeruginosa [8]; 25 mm in the experiment on Aspergillus tubingensis [9]; 26 mm in the experiment on Candida albicans [10]; 23 mm in the experiment with Aspergillus fumigatus [12]. In addition, the “diameter of the inhibition zone (DIZ)” value in the experiment with Escherichia coli [13] was 26 mm; in the experiment on Trichophyton rubrum [14], 38 mm; with Aspergillus niger [16] it was 22 mm; with Candida tropicalis [19], 33 mm; in the experiment with Staphylococcus aureus [21], 21 mm; in the experiment with Penicillium expansum [24] it was 29 mm. Further, the “diameter of the inhibition zone (DIZ)” value (in [27]; in the experiment with Bacillus subtilis [28]) was 24 mm in each case. Further, the MIC was found to be 4 µg/mL (≈ 18.8 µM) in the experiment on Candida tropicalis [2]; 8 µg/mL (≈ 37.7 µM) against Klebsiella pneumoniae [4]; 32 µg/mL (≈ 151 µM) in the experiment with Aspergillus tubingensis [5]; 16 µg/mL (≈ 75.4 µM) against Pseudomonas aeruginosa [6]; 2 µg/mL (≈ 9.42 µM) against Trichophyton rubrum [7]; 32 µg/mL (≈ 151 µM) against Aspergillus fumigatus [11]. The MIC amounted to 64 µg/mL (≈ 302 µM) with Staphylococcus aureus [15]; 8 µg/mL (≈ 37.7 µM) in the experiment with Candida albicans [17]; 64 µg/mL (≈ 302 µM) in experiment [18]; 16 µg/mL (≈ 75.4 µM) against Escherichia coli [20]; 16 µg/mL (≈ 75.4 µM) against Aspergillus niger [22]; 16 µg/mL (≈ 75.4 µM) in the experiment with Aspergillus flavus [23]. Further, the minimum inhibitory concentration (MIC) turned out to be 8 µg/mL (≈ 37.7 µM) in the experiment on Penicillium expansum [25] and 32 µg/mL (≈ 151 µM) against Bacillus subtilis [26]. For the same molecule, the Ratio in the experiment with Penicillium expansum [29] was 8.

Regarding `C[C@@H]1[C@H](O)[C@@H](C)/C=C/C=C/C=C/C=C/C=C/C=C/C=C/[C@H](O[C@@H]2O[C@H](C)[C@@H](O)[C@H](N)[C@@H]2O)C[C@@H]2O[C@](O)(C[C@@H](O)C[C@@H](O)[C@H](O)CC[C@@H](O)C[C@@H](O)CC(=O)O[C@H]1C)C[C@H](O)[C@H]2C(=O)O` [AMPHOTERICIN B], the “diameter of the inhibition zone (DIZ)” value in the experiment on Aspergillus flavus [1] is recorded as 22 mm; with Aspergillus tubingensis [9], 30 mm; with Candida albicans [10], 31 mm; with Aspergillus fumigatus [12], 25 mm; in the experiment on Trichophyton rubrum [14] it was 29 mm; with Aspergillus niger [16], 26 mm. Also, the “diameter of the inhibition zone (DIZ)” value in the experiment on Candida tropicalis [19] is 24 mm; with Penicillium expansum [24], 20 mm. In addition, the MIC was 8 µg/mL (≈ 8.66 µM) in the experiment on Candida tropicalis [2]; 64 µg/mL (≈ 69.3 µM) against Aspergillus tubingensis [5]; 4 µg/mL (≈ 4.33 µM) against Trichophyton rubrum [7]; 16 µg/mL (≈ 17.3 µM) in the experiment on Aspergillus fumigatus [11]; 16 µg/mL (≈ 17.3 µM) against Candida albicans [17]; 32 µg/mL (≈ 34.6 µM) in the experiment with Aspergillus niger [22]. Moreover, the MIC against Aspergillus flavus [23] was determined as 16 µg/mL (≈ 17.3 µM); in the experiment with Penicillium expansum [25], 64 µg/mL (≈ 69.3 µM).

Take `O=C(O)c1cn(C2CC2)c2cc(N3CCNCC3)c(F)cc2c1=O` [CIPROFLOXACIN]: the “diameter of the inhibition zone (DIZ)” value in the experiment with Klebsiella pneumoniae [3] was 33 mm; with Pseudomonas aeruginosa [8] it was 33 mm; in the experiment with Escherichia coli [13] it was 32 mm; with Staphylococcus aureus [21], 31 mm; in [27] it was 31 mm; in the experiment with Bacillus subtilis [28], 30 mm. Also, the minimum inhibitory concentration (MIC) against Klebsiella pneumoniae [4] is 0.5 µg/mL (≈ 1.51 µM); in the experiment with Pseudomonas aeruginosa [6], 1 µg/mL (≈ 3.02 µM); in the experiment on Staphylococcus aureus [15] it was 1 µg/mL (≈ 3.02 µM); in experiment [18], 0.25 µg/mL (≈ 0.754 µM); with Bacillus subtilis [26], 2 µg/mL (≈ 6.04 µM).
